Our source for the Ki and IC50 values is patent US20160185797A1, “ALKYNYL ALCOHOLS AND METHODS OF USE” (Genentech, Inc., priority 2013, published 2016).

Assay [1] deals with T1, nuclear factor-kappa B (NF-kB)-inducing kinase (NIK) (Homo sapiens, UniProt Q99558).
T1 construct: made in house; host or cells: baculovirus-infected insect cells
Description: NIK enzyme inhibition assay (Transcreener ADP fluorescence polarization, NIK ADP-FP). Type of assay: biochemical. Background: Fluorescence polarisation rises when a labelled molecule tumbles more slowly, as on binding a larger partner.

In assay [2] the test system is REL-A (p65) nuclear translocation in HeLa cells. Put plainly: REL-A (p65) nuclear translocation assay in HeLa cells, TNF-α stimulated (classical NF-kB signaling), high content imaging. Format: cell-based. Conditions: Homo sapiens, HeLa, compound 4.5 h, then 10 ng/mL TNF-α for 30 minutes, read-out: REL-A HeLa Transloc Assay (IC50). The method in brief:
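HeLa cells in medium with 10% fetal bovine serum were exposed to compounds (0.2% DMSO final) for 4.5 hours, then stimulated with 10 ng/mL TNF-α for 30 minutes. After fixation in 4% paraformaldehyde and permeabilization with 0.1% Triton X-100, cells were stained with 400 ng/mL anti-REL-A (p65) antibody, an Alexa488 secondary and DRAQ5. Opera imaging quantified the nuclear-to-cytoplasmic signal ratio to give IC50.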

In assay [3] the test system is p52 (NF-kB2) nuclear translocation in HeLa cells. Description: p52 (NF-kB2) nuclear translocation assay in HeLa cells, anti-lymphotoxin beta receptor antibody stimulated (non-classical NF-kB signaling), high content imaging. Type of assay: cell-based. Conditions: Homo sapiens, 100 ng/mL anti-lymphotoxin beta receptor antibody for 5 hours, read-out: p52 HeLa Transloc Assay (IC50). An outline of the steps: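 HeLa cells in 10% FBS medium were treated with compound (0.2% DMSO final) and stimulated with 100 ng/mL anti-lymphotoxin beta receptor antibody for 5 h. Fixed cells were immunostained for p52 and imaged with DRAQ5 nuclear stain. Translocation is the nuclear to cytoplasmic intensity ratio, […].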

SMILES strings stand for the structures. A value given as a limit tells only on which side of the number the result lay.

T1 sequence (Q99558 whole entry): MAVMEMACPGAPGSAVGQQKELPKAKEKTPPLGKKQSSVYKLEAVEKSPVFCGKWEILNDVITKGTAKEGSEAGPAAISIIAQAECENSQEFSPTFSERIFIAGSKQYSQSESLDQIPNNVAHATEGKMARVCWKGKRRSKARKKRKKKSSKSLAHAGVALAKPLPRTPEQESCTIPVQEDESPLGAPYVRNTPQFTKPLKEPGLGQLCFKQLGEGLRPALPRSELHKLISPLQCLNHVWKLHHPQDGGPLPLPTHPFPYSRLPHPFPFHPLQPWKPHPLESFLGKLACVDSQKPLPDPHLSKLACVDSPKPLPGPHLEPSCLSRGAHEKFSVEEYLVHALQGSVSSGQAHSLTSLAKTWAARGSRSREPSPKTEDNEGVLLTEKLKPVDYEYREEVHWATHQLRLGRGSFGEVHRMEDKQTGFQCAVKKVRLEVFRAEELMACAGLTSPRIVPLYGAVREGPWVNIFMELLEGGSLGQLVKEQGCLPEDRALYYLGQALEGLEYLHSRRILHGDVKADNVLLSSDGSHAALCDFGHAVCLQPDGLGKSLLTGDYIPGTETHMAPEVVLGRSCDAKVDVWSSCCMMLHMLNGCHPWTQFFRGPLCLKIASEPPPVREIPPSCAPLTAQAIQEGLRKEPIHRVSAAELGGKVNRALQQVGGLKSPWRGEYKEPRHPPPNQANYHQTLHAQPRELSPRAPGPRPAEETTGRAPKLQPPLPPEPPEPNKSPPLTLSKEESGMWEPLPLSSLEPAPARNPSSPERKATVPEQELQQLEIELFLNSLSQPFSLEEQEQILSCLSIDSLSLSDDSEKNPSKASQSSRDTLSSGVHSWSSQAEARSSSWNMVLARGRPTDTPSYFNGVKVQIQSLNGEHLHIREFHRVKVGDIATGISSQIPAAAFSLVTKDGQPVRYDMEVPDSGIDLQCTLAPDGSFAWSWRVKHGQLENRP

For the compound `Cc1nnc([C@](C)(O)C#Cc2cccc(-c3nc(C(N)=O)c(N)cc3F)c2)o1` [Example 130, 3-amino-5-fluoro-6-[3-[(3R)-3-hydroxy-3-(5-methyl-1,3,4-oxadiazol-2-yl)but-1-ynyl]phenyl]pyridine-2-carboxamide], the Ki in assay [1] is 9.05 nM. For the same compound, the IC50 in assay [2] and in assay [3] was no less than 2000 nM each time.
`CN1CCC[C@@](O)(C#Cc2cccc(-c3nc(C(N)=O)c(N)cc3F)c2)C1=O` [Example 131, 3-amino-5-fluoro-6-[3-[2-[(3R)-3-hydroxy-1-methyl-2-oxo-3-piperidyl]ethynyl]phenyl]pyridine-2-carboxamide] returned a Ki in assay [1] of 1.06 nM. The IC50 in assay [2] is no less than 2000 nM; in assay [3], 142 nM.
In assay [1], `Cc1nc([C@](C)(O)C#Cc2cccc(-c3nc(C(N)=O)c(N)cc3F)c2)no1` [Example 132, 3-amino-5-fluoro-6-[3-[(3R)-3-hydroxy-3-(5-methyl-1,2,4-oxadiazol-3-yl)but-1-ynyl]phenyl]pyridine-2-carboxamide] showed a Ki of 8.75 nM. Besides, the IC50 in assay [2] and in assay [3] was no less than 2000 nM each time.
`Cc1ccc(-c2cccc(C#C[C@]3(O)CCN(C)C3=O)c2)nc1C(N)=O` [Example 133, 6-[3-[2-[(3R)-3-hydroxy-1-methyl-2-oxo-pyrrolidin-3-yl]ethynyl]phenyl]-3-methyl-pyridine-2-carboxamide]: the Ki in assay [1] was found to be 0.18 nM. The figures for the IC50 in assay [2] and in assay [3] were no less than 2000 nM and 160 nM, respectively.
`COCCNc1ncc(-c2cc(C#C[C@]3(O)CCN(C)C3=O)ccc2F)nc1C(N)=O` [Example 134, 6-[2-fluoro-5-[2-[(3R)-3-hydroxy-1-methyl-2-oxo-pyrrolidin-3-yl]ethynyl]phenyl]-3-(2-methoxyethylamino) pyrazine-2-carboxamide] came in with an inhibition constant Ki in assay [1] of 0.09 nM. The IC50 is no less than 2000 nM in assay [2] and 45.4 nM in assay [3].
The compound `CN1CC[C@@](O)(C#Cc2cccc(-c3cc(C(F)(F)F)cc(C(N)=O)n3)c2)C1=O` [Example 135, 6-[3-[2-[(3R)-3-hydroxy-1-methyl-2-oxo-pyrrolidin-3-yl]ethynyl]phenyl]-4-(trifluoromethyl) pyridine-2-carboxamide] displayed a Ki in assay [1] of 0.53 nM. Besides, the IC50 was no less than 2000 nM in assay [2] and 147 nM in assay [3].
In assay [1], `COc1cc(-c2cccc(C#C[C@]3(O)CCN(C)C3=O)c2)nc(C(N)=O)n1` [Example 136, 4-[3-[2-[(3R)-3-hydroxy-1-methyl-2-oxo-pyrrolidin-3-yl]ethynyl]phenyl]-6-methoxy-pyrimidine-2-carboxamide] gave a Ki of 0.5 nM. Moreover, the IC50 in assay [2] was no less than 2000 nM; in assay [3] it was 152 nM.
For the compound `Cc1nnc([C@](C)(O)C#Cc2cccc(-c3nc(C(N)=O)cc(-c4ccnn4C)n3)c2)o1` [Example 137, 2-[3-[(3R)-3-hydroxy-3-(5-methyl-1,3,4-oxadiazol-2-yl)but-1-ynyl]phenyl]-6-(2-methylpyrazol-3-yl)pyrimidine-4-carboxamide], the Ki in assay [1] came out at 3.68 nM. Further, the IC50 in assay [2] is no less than 20000 nM; in assay [3], 268 nM.
Compound `Cc1nccn1-c1cc(C(N)=O)nc(-c2cccc(C#C[C@]3(O)CCN(C)C3=O)c2)n1` [Example 141, 2-[3-[2-[(3R)-3-hydroxy-1-methyl-2-oxo-pyrrolidin-3-yl]ethynyl]phenyl]-6-(2-methylimidazol-1-yl) pyrimidine-4-carboxamide] came in with a Ki in assay [1] of 0.37 nM. Also, the values for the IC50 in assay [2] and in assay [3] were no less than 20000 nM and 328 nM, respectively.
In assay [1], `CN1CC[C@@](O)(C#Cc2cccc(-c3ncc(N[C@H]4CCOC4)c(C(N)=O)n3)c2)C1=O` [Example 142, 2-[3-[2-[(3R)-3-hydroxy-1-methyl-2-oxo-pyrrolidin-3-yl]ethynyl]phenyl]-5-[[(3S)-tetrahydrofuran-3-yl]amino] pyrimidine-4-carboxamide] showed a Ki of 0.24 nM. The IC50 in assay [2] was no less than 20000 nM; in assay [3] it was 14.8 nM.
For `CN1CC[C@@](O)(C#Cc2cccc(-c3ncc(N[C@@H]4CCOC4)c(C(N)=O)n3)c2)C1=O` [Example 143, 2-[3-[2-[(3R)-3-hydroxy-1-methyl-2-oxo-pyrrolidin-3-yl]ethynyl]phenyl]-5-[[(3R)-tetrahydrofuran-3-yl]amino] pyrimidine-4-carboxamide], the Ki in assay [1] came to 0.05 nM. The IC50 was no less than 20000 nM in assay [2] and 8.12 nM in assay [3].
For `CN1CC[C@@](O)(C#Cc2cccc(-c3cc(-c4ccnn4C)cc(C(N)=O)n3)c2)C1=O` [Example 144, 6-[3-[2-[(3R)-3-hydroxy-1-methyl-2-oxo-pyrrolidin-3-yl]ethynyl]phenyl]-4-(2-methylpyrazol-3-yl) pyridine-2-carboxamide], in assay [1], the affinity, expressed as Ki, was 0.69 nM. For the same compound, the IC50 in assay [2] was no less than 2000 nM; in assay [3], 199 nM.
In the case of `CN1CC[C@@](O)(C#Cc2cccc(-c3ncc(N)c(C(N)=O)n3)c2)C1=O` [Example 145, 5-amino-2-[3-[2-[(3R)-3-hydroxy-1-methyl-2-oxo-pyrrolidin-3-yl]ethynyl]phenyl]pyrimidine-4-carboxamide], in assay [1], the affinity corresponds to a Ki of 0.05 nM. The IC50 in assay [2] is no less than 2000 nM; in assay [3], 38 nM.
The compound `CN1CC[C@@](O)(C#Cc2cccc(-c3ncc(NCC(F)(F)F)c(C(N)=O)n3)c2)C1=O` [Example 146, 2-[3-[2-[(3R)-3-hydroxy-1-methyl-2-oxo-pyrrolidin-3-yl]ethynyl]phenyl]-5-(2,2,2-trifluoroethylamino) pyrimidine-4-carboxamide] had a Ki in assay [1] of 0.37 nM. The IC50 in assay [2] was no less than 20000 nM; in assay [3], 11.6 nM.
The compound `COC[C@@H](C)Nc1ccc(-c2cc(C#C[C@]3(O)CCN(C)C3=O)ccc2F)nc1C(N)=O` [Example 148, 6-[2-fluoro-5-[2-[(3R)-3-hydroxy-1-methyl-2-oxo-pyrrolidin-3-yl]ethynyl]phenyl]-3-[[(1R)-2-methoxy-1-methyl-ethyl]amino] pyridine-2-carboxamide] yielded a Ki in assay [1] of 0.19 nM. Moreover, the values for the concentration for half-maximal inhibition (IC50) in assay [2] and in assay [3] were no less than 2000 nM and 52.4 nM, respectively.
Take `COC[C@H](C)Nc1ccc(-c2cc(C#C[C@]3(O)CCN(C)C3=O)ccc2F)nc1C(N)=O` [Example 149, 6-[2-fluoro-5-[2-[(3R)-3-hydroxy-1-methyl-2-oxo-pyrrolidin-3-yl]ethynyl]phenyl]-3-[[(1S)-2-methoxy-1-methyl-ethyl]amino]pyridine-2-carboxamide]: the Ki in assay [1] amounted to 0.88 nM. Further, the IC50 in assay [2] is no less than 2000 nM; in assay [3], 51.1 nM.
In turn, `Cc1nnc([C@](C)(O)C#Cc2cccc(-c3nc(C(N)=O)cc(-n4nccc4C)n3)c2)o1` [Example 150] showed a Ki in assay [1] of 0.99 nM. In addition, the IC50 in assay [2] was greater than 2000 nM; in assay [3], 628 nM.
`Cc1cc(C(N)=O)nc(-c2cccc(C#C[C@]3(O)CCN(C)C3=O)c2)c1F` [Example 151, 5-fluoro-6-[3-[2-[(3R)-3-hydroxy-l-methyl-2-oxo-pyrrolidin-3-yl]ethynyl]phenyl]-4-methyl-pyridine-2-carboxamide] returned a Ki in assay [1] of 0.67 nM. Further, the IC50 in assay [2] was greater than 2000 nM; in assay [3], 396 nM.
Regarding `CN1CC[C@@](O)(C#Cc2cc(-c3ccc(N)c(C(N)=O)n3)ccc2F)C1=O` [Example 152, 3-amino-6-[4-fluoro-3-[2-[(3R)-3-hydroxy-l-methyl-2-oxo-pyrrolidin-3-yl]ethynyl]phenyl] pyridine-2-carboxamide], the Ki in assay [1] was less than 0.05 nM. The IC50 in assay [2] was greater than 2000 nM; in assay [3] it was 46 nM.
Take `COCCNc1cnc(-c2cc(C#C[C@]3(O)CCN(C)C3=O)c(F)cc2F)nc1C(N)=O` [Example 153, 2-[2,4-difluoro-5[2-[(3R)-3-hydroxy-1-methyl-2-oxo-pyrrolidin-3-yl]ethynyl]phenyl]-5-(2-methoxyethylamino) pyrimidine-4-carboxamide]: in assay [1], the Ki stood at 0.1 nM. Besides, the IC50 in assay [2] was greater than 2000 nM; in assay [3], 45 nM.
The corresponding values for `Cc1cn[nH]c1-c1cc(C(N)=O)nc(-c2cccc(C#C[C@]3(O)CCN(C)C3=O)c2)n1` [Example 155, 2-[3-[2-[(3R)-3-hydroxy-l-methyl-2-oxo-pyrrolidin-3-yl]ethynyl]phenyl]-6-(4-methyl-1H-pyrazol-5-yl) pyrimidine-4-carboxamide] are less than 0.05 nM, greater than 2000 nM and 277 nM.
In assay [1], `Cc1cc(C(N)=O)nc(-c2cc(C#C[C@]3(O)CCN(C)C3=O)ccc2F)c1` [Example 158, 6-[2-fluoro-5-[2-[(3R)-3-hydroxy-1-methyl-2-oxo-pyrrolidin-3-yl]ethynyl]phenyl]-4-methyl-pyridine-2-carboxamide] yielded a Ki of 0.06 nM. In addition, the IC50 in assay [2] was greater than 2000 nM; in assay [3] it was 63 nM.
Consider `CN1CC[C@@](O)(C#Cc2cccc(-c3cc4c(C(F)(F)F)c[nH]c4c(C(N)=O)n3)c2)C1=O` [Example 159, 5-[3-[2-[(3R)-3-hydroxy-l-methyl-2-oxo-pyrrolidin-3-yl]ethynyl]phenyl]-3-(trifluoromethyl)-1H-pyrrolo [2,3-c]pyridine-7-carboxamide], for which the inhibitory constant (Ki) in assay [1] was less than 0.05 nM. Moreover, the IC50 in assay [2] was greater than 2000 nM; in assay [3], 73 nM.
On to `CN1CC[C@@](O)(C#Cc2cc(-c3cccc(C(N)=O)n3)c3ncsc3c2)C1=O` [Example 160], for which, in assay [1], the Ki stood at 0.5 nM. The IC50 in assay [2] is greater than 2000 nM; in assay [3], 416 nM.

By Ki is commonly meant a measure of affinity in units of concentration, obtained from inhibition or displacement. A low value points to tighter binding. For orientation: IC50 means the concentration that inhibits the measured activity by half.
